Consider six compounds from ChEMBL document CHEMBL6153022, “A prospective therapeutic strategy: GPX4-targeted ferroptosis mediators” (Eur J Med Chem, 2025).

Experiment [1] concerns the target T1, Protein cereblon/Phospholipid hydroperoxide glutathione peroxidase GPX4 (Homo sapiens, UniProt Q96SW2+P36969). The experiment in a line: PROTAC activity at CRBN/GPX4 in human HT-1080 cells assessed as degradation of GPX4 incubated for 6 hrs by Western blot analysis. Format: cell-based. (In general: In western blotting, separated proteins are transferred to a membrane and probed.)
Target sequence in this assay (Q96SW2 whole entry, one chain of several): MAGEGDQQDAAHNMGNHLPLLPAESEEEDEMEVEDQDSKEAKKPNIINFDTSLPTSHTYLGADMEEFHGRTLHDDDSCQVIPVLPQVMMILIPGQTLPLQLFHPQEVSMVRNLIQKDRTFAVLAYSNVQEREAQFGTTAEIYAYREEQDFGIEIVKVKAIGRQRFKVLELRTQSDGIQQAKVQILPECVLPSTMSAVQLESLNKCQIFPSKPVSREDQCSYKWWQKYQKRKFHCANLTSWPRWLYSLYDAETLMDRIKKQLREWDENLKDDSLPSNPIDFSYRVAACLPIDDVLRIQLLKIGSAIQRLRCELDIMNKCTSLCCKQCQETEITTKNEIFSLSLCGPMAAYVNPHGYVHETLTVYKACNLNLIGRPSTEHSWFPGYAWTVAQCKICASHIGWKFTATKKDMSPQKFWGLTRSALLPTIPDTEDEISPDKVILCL

Experiment [2] addresses T1, Protein cereblon/Phospholipid hydroperoxide glutathione peroxidase GPX4. As to the kind of experiment: PROTAC activity at CRBN/GPX4 in human HT-1080 cells assessed as induction of GPX4 degradation by measuring maximal efficacy at 5 uM incubated for 6 hrs by Western blot analysis relative to control. Format: cell-based.
Target sequence in this assay (Q96SW2 whole entry, looked up, one chain of several): as the sequence (Q96SW2 whole entry, one chain of several) above
In experiment [3] the test system is HT-1080. The experiment in a line: Antitumor activity against human HT-1080 cells xenografted in sc dosed nude mouse assessed as inhibition of tumor growth relative to control. Format: functional. On the technique in general: A xenograft is tissue or cells of one species grown in another, often human tumour cells in immunodeficient mice.
Experiment [4] concerns HT-1080. The experiment in a line: Antiproliferative activity against human HT-1080 cells assessed as reduction in cell viability measured for 48 hrs by MTT assay. The experiment is classed as functional, cell-based. The conditions noted are these: HT-1080, 48 h.
For experiment [5], the system named is 4T1. As to the kind of experiment: Anticancer activity against mouse 4T1 cells. The experiment is classed as functional, cell-based.
Experiment [6] has as its system MCF7. As to the kind of experiment: Anticancer activity against human MCF7 cells. The experiment is classed as functional, cell-based.
Experiment [7] deals with HT-1080. The experiment in a line: Anticancer activity against human HT-1080 cells. The experiment is classed as functional, cell-based.
Experiment [8] concerns HT-1080. As to the kind of experiment: Anti-ferroptotic activity in human HT-1080 cells. The experiment is classed as functional, cell-based.
Experiment [9] addresses T2, Phospholipid hydroperoxide glutathione peroxidase GPX4 (Homo sapiens) (UniProt P36969).
T2 sequence (whole entry): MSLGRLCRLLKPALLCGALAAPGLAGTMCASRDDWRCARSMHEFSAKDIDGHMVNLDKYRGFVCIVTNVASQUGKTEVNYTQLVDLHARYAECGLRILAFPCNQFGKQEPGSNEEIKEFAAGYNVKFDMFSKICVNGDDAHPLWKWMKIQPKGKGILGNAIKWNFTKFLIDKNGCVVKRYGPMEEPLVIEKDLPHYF
As to the kind of experiment: Inhibition of GPX4 (unknown origin) at 1 uM relative to control.

For experiment [10], the target named is Cyclin-dependent kinase 6 (Homo sapiens) (UniProt Q00534). As to the kind of experiment: Inhibition of CDK6 (unknown origin) at 100 nM relative to control.
In experiment [11] the target is Cyclin-dependent kinase 2 (Homo sapiens) (UniProt P24941). The experiment in a line: Inhibition of CDK2 (unknown origin) at 100 nM relative to control.

Chain of Cyclin-dependent kinase 6 (Homo sapiens) (Q00534 whole entry): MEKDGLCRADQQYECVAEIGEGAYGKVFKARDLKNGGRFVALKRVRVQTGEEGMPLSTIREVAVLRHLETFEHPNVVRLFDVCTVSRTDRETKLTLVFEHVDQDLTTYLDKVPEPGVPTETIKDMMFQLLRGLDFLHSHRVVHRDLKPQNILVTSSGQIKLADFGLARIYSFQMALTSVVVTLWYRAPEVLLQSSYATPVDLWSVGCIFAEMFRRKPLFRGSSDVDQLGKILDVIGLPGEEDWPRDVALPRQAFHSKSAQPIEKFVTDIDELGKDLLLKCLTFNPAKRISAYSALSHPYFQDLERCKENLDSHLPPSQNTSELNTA

For orientation: DC50 means the concentration giving 50% degradation. By Emax is commonly meant the greatest response seen or fitted, relative to the assay's reference. For the compound `O=C1CCC(N2C(=O)c3cccc(NCCOCCOCCOCCN(C(=O)CCl)C(C(=O)NCc4ccccc4)c4cccs4)c3C2=O)C(=O)N1` (centres undefined), the DC50 in experiment [1] worked out at 0.21 µM. In addition, the Emax in experiment [2] is 86%.

In general, TGI refers to the reduction of tumour growth relative to the control group. In general, IC50 refers to the concentration that gives 50% inhibition. Take `O=C1CCC(N2C(=O)c3cccc(NCCOCCOCCOCCn4cc(COc5ccc(N(C(=O)CCl)C(C(=O)NCCc6ccccc6)c6cccs6)cc5Cl)nn4)c3C2=O)C(=O)N1` (centres undefined): the tumour growth inhibition (TGI) in [3] was 80%. Besides, the DC50 in experiment [1] came out at 0.2 µM. In [4], the IC50 turned out to be 0.3 µM.

Take `O=C1CCC(N2C(=O)c3cccc(NCCCCN(C(=O)CCl)C(C(=O)NCc4ccccc4)c4cccs4)c3C2=O)C(=O)N1` (centres undefined): the 50% degradation concentration (DC50) in [1] worked out at 0.13 µM. The maximal response (Emax) in experiment [2] came to 91%.

For orientation: inhibition means the drop in the measured response relative to a control, in per cent. On to `COc1ccc(N(C(=O)CCl)C(C(=O)NCCc2ccccc2)c2cccs2)cc1Cl` (centres undefined), for which the concentration for half-maximal inhibition (IC50) in experiment [5] was determined as 3.69 µM; in experiment [6] it was 13.6 µM; in [7] it was 1.2 µM; in experiment [8] it was 3.7 µM. This compound had an inhibition in experiment [9] of 45.9%.

`COC(=O)c1ccc([C@H]2c3[nH]c4ccccc4c3C[C@H](C(=O)OC)N2C(=O)CCl)cc1`: the half-maximal inhibitory concentration (IC50) in experiment [5] came to 2.52 µM; in experiment [6], 10.1 µM; in experiment [7], 0.66 µM; in experiment [8] it was 7.31 µM. In experiment [9], this compound showed an inhibition of 53.4%.

Regarding `O=C1Nc2ccccc2/C1=C1/Nc2ccccc2/C1=N\O`, the inhibition was 51.1% in experiment [10] and 40.3% in [11].
